Key:
[1] = target: GABAA central benzodiazepine receptor; assay: Benzodiazepine binding assay ((3H)-flunitrazepam displacement); details: read-out: BZ binding assay (IC50); rat whole brain (except cerebellum) membranes, 1 nM (3H)-flunitrazepam, 3-concentration dose response curve
[2] = system: GABAA receptors; assay: Electrophysiology assay (two-electrode voltage clamp, Xenopus oocytes expressing GABAA receptors); format: cell-based; details: positive (Pos) or negative (Neg) modulation of GABA EC10 current at a screening concentration of 10 μM; receptor subtype not stated
Protocol: The modulation of GABAA function is determined by changes in current as determined in an electrophysiology assay, as is detailed below.
mRNA was prepared from lyophilized plasmid pellets containing cDNA inserts encoding the specific GABAA receptor subunit. cDNAs encoding the α2, α3, and γ3 subunits were subcloned into pBluescript, SK^−. cDNAs encoding the α1 and α5 subunits were subcloned into prC while cDNA encoding the β2 subunit was subcloned into pcDNA1. The cDNA construct encoding the γ2s subunit is in the pGH19 expression construct. Overnight cultures of transformed DH5a bacterial cells were performed to grow sufficient quantities for maxiprep isolation of the plasmid cDNA. The resulting plasmid cDNA was linearized by digestion with an appropriate restriction enzyme that cleaves distal to the cDNA insert (XbaI for α1,2, β2, and γ3 or NotI for α3,5 and γ2, respectively). Following digestion, plasmid cDNA was treated with proteinase K and extracted with phenol/chloroform/isoamyl alcohol, followed by ethanol precipitation. cDNA quality was assessed by agarose-gel electrophoresis (1.5% agarose gel). Samples were stored at −20° C. until use. In vitro transcription was performed with T7 RNA polymerase. mRNA was then stored at −80° C. until use. Plasmids were linearized with appropriate restriction enzymes before in vitro transcription using the Message Machine kit (Ambion, Austin, Tex.).
GABAA receptor expression in Xenopus oocytes: Following 45 min of 0.15% Tricaine anesthesia, an ovarian section containing the follicular oocytes was removed from the frog through a lateral abdominal incision. Oocytes were immediately placed in a calcium-free solution (NaCl 96 mM, MgCl2 1 mM, KCl 2 mM, Hepes 50 mM, pyruvate 2.5 mM, gentamycin 100 μg/mL, penicillin-streptomycin 50 U/mL, pH 7.4). Following 1.5-2 hour incubation in 0.2% collagenase (type II, Sigma Chemical Co., St. Louis, Mo.) at room temperature, individual Dumont stage V and VI oocytes were transferred to an incubator and maintained overnight in Barth's solution (NaCl 84 mM, NaHCO3 2.4 mM, MgSO4 0.82 mM, KCl 1 mM, Ca(NO3)2 0.33 mM, CaCl2 0.41 mM, Tris/HCl 7.5 mM, pyruvate 2.5 mM, gentamycin 50 μg/mL, penicillin-streptomycin, 100 units/mL, pH 7.4) at 18-20° C. and used for experiments 1-5 days post-injection. Oocytes were injected solution using an electronic microinjector (Drummond, Broomall, Pa.) with […] of RNA containing 0.3-0.5 ng of each subunit RNA in a 1:1:1 ratio. The injected oocytes were used for experiments after 1-5 days of incubation in Barth's solution at 18-20° C.
Measurements of ion currents from oocytes expressing GABAA receptors were performed using a Warner two-electrode voltage-clamp amplifier (Warner Instruments, Inc., Foster City, Calif.) (Park-Chung, M., et al. (1999) Brain Res. 830: 72-87 incorporated herein in its entirety). Microelectrodes were fabricated from borosilicate glass capillaries with a programmed pipette puller (Sutter Instrument Co., CA). Microelectrode resistance was 1-3 MΩ when filled with 3 M KCl. The oocyte recording chamber was continuously perfused with Ringer solution. Oocytes were clamped at a holding potential of −70 mV during data acquisition. The membrane current was filtered at 10 Hz and sampled at 100 Hz. Compounds were applied by a gravity-driven external perfusion system. The working volume of the recording chamber was 30 μL and the rate of the perfusion was approximately 50 μL/sec. Compound application was 10-20 sec followed by a 90 sec wash. Data acquisition and external perfusion was computer controlled by custom-developed software. All experiments were performed at room temperature (22-24° C.). Dose-response data from each oocyte were fitted to the Hill equation by non-linear regression using the equation: IGABA=Emax/(1+(EC50/c)^n^H) Emax is the maximum response, EC50 is the concentration producing 50% of the maximal response, nH is the Hill coefficient and c is the concentration of agonist. […]

SMILES | IC50 [1] [nM] | EP result [2]
O=c1c2c[nH]c3ccc(N4CCNCC4)nc3c-2nn1-c1ccccc1 [6a, 2-Phenyl-8-(piperazin-1-yl)-2,5-dihydro-pyrazolo[4,3-c][1,5]naphthyridin-3-one] | < 1000 | Neg
CN1CCN(c2ccc3[nH]cc4c(=O)n(-c5ccccc5)nc-4c3n2)CC1 [6b, 8-(4-Methyl-piperazin-1-yl)-2-phenyl-2,5-dihydro-pyrazolo[4,3-c]-[1,5]naphthyridin-3-one] | < 1000 | Neg
O=c1c2c[nH]c3ccc(N4CCOCC4)nc3c-2nn1-c1ccccc1 [6c, 8-Morpholin-4-yl-2-phenyl-2,5-dihydro-pyrazolo[4,3-c][1,5]naphthyridin-3-one] | < 1 | Neg
O=c1c2c[nH]c3ccc(N4CCC(O)CC4)nc3c-2nn1-c1ccccc1 [6d, 8-(4-Hydroxy-piperidin-1-yl)-2-phenyl-2,5-dihydro-pyrazolo[4,3-c][1,5]naphthyridin-3-one] | < 1 | 
CC1CN(c2ccc3[nH]cc4c(=O)n(-c5ccccc5)nc-4c3n2)CCN1 (stereo not shown) [6e, 8-(3-Methyl-piperazin-1-yl)-2-phenyl-2,5-dihydro-pyrazolo[4,3-c][1,5]naphthyridin-3-one] | < 1000 | 
O=c1c2c[nH]c3ccc(N4CCCC(O)C4)nc3c-2nn1-c1ccccc1 (stereo not shown) [6f, 8-(3-Hydroxy-piperidin-1-yl)-2-phenyl-2,5-dihydro-pyrazolo[4,3-c][1,5]naphthyridin-3-one] | < 1000 | 
O=c1c2c[nH]c3ccc(N4CCN(c5ccc(F)cc5)CC4)nc3c-2nn1-c1ccccc1 [6g, 8-[4-(4-Fluoro-phenyl)-piperazin-1-yl]-2-phenyl-2,5-dihydro-pyrazolo[4,3-c][1,5]naphthyridin-3-one] | < 1000 | 
O=c1c2c[nH]c3ccc(N4CCCNCC4)nc3c-2nn1-c1ccccc1 [6h, 8-[1,4]-Diazepan-1-yl-2-phenyl-2,5-dihydro-pyrazolo[4,3-c][1,5]naphthyridin-3-one] | < 1000 | 
O=c1c2c[nH]c3ccc(N4CCCC(CO)C4)nc3c-2nn1-c1ccccc1 (stereo not shown) [6i, 8-(3-Hydroxymethyl-piperidin-1-yl)-2-phenyl-2,5-dihydro-pyrazolo[4,3-c][1,5]naphthyridin-3-one] | < 1 | 
O=C1CN(c2ccc3[nH]cc4c(=O)n(-c5ccccc5)nc-4c3n2)CCN1 [6j, 8-(3-Oxo-piperazin-1-yl)-2-phenyl-2,5-dihydro-pyrazolo[4,3-c][1,5]naphthyridin-3-one] | < 1000 | 
O=c1c2c[nH]c3ccc(N4CCCC4)nc3c-2nn1-c1ccccc1 [6k, 2-Phenyl-8-pyrrolidin-1-yl-2,5-dihydro-pyrazolo[4,3-c][1,5]naphthyridin-3-one] | < 1 | 
O=c1c2c[nH]c3ccc(N4CCN(c5ccccc5)CC4)nc3c-2nn1-c1ccccc1 [6l, 2-Phenyl-8-(4-phenyl-piperazin-1-yl)-2,5-dihydro-pyrazolo[4,3-c][1,5]naphthyridin-3-one] | < 1000 | Pos
CC1CN(c2ccc3[nH]cc4c(=O)n(-c5ccccc5)nc-4c3n2)CC(C)O1 (stereo not shown) [6m, 8-(2,6-Dimethyl-morpholin-4-yl)-2-phenyl-2,5-dihydro-pyrazolo[4,3-c][1,5]naphthyridin-3-one] | < 1000 | Pos
CN1CCN(c2ccc3[nH]cc4c(=O)n(-c5ccccn5)nc-4c3n2)CC1 [6n, 8-(4-Methyl-piperazin-1-yl)-2-pyridin-2-yl-2,5-dihydro-pyrazolo[4,3-c][1,5]naphthyridin-3-one] | < 1000 | 
O=c1c2c[nH]c3ccc(N4CCOCC4)nc3c-2nn1-c1ccccn1 [6o, 8-Morpholin-4-yl-2-pyridin-2-yl-2,5-dihydro-pyrazolo[4,3-c][1,5]naphthyridin-3-one] | < 1000 | 
CN1CCCN(c2ccc3[nH]cc4c(=O)n(-c5ccccn5)nc-4c3n2)CC1 [6p, 8-(4-Methyl-[1,4]diazepan-1-yl)-2-pyridin-2-yl-2,5-dihydro-pyrazolo[4,3-c][1,5]naphthyridin-3-one] | < 1000 | 
CC1CN(c2ccc3[nH]cc4c(=O)n(-c5ccccn5)nc-4c3n2)CCN1 (stereo not shown) [6q, 8-(3-Methyl-piperazin-1-yl)-2-pyridin-2-yl-2,5-dihydro-pyrazolo[4,3-c][1,5]naphthyridin-3-one] | < 1000 | Pos
O=c1c2c[nH]c3ccc(N4CCC(O)CC4)nc3c-2nn1-c1ccccn1 [6r] | < 1 | 
O=c1c2c[nH]c3ccc(N4CCNCC4)nc3c-2nn1-c1ccccn1 [6s, 8-piperazin-1-yl-2-pyridin-2-yl-2,5-dihydro-pyrazolo[4,3-c][1,5]naphthyridin-3-one] | < 1000 | Pos
COc1ccc(-n2nc3c4nc(N5CCN(C)CC5)ccc4[nH]cc-3c2=O)cc1 [6t, 2-(4-Methoxy-phenyl)-8-(4-methyl-piperazin-1-yl)-2,5-dihydro-pyrazolo[4,3-c][1,5]naphthyridin-3-one] | < 1 | Neg
O=c1c2c[nH]c3cc(N4CCNCC4)ncc3c-2nn1-c1ccccc1 [compound 14, 2-Phenyl-7-(piperazin-1-yl)-2,5-dihydro-pyrazolo[4,3-c][1,6]naphthyridin-3-one] | > 1000 | Neg
O=c1c2c[nH]c3c(N4CCNCC4)nccc3c-2nn1-c1ccccc1 [compound 17, 2-Phenyl-6-(piperazin-1-yl)-2,5-dihydro-pyrazolo[4,3-c][1,7]naphthyridin-3-one] | > 1000 | 
